Laboratory results reported in patent US7214668B2, “Phosphonic acid based prodrugs of PMEA and its analogues” (Metabasis Therapeutics, Inc., priority 2002, dated 2007).
“And” between values parts separate entries of the source, which are not always exact repeats. Equal entries are not always repeated. Where two headings read alike, the source gives them in different places.

Key:
[1] = Plasma and urine PMEA following oral Compound 4 and bis POM PMEA in rats; assay type: in vivo, rat; conditions: 30 mg/kg PMEA equivalents p.o.
Experimental: PMEA levels (0–12 h) were quantified in plasma by fluorescence HPLC following chloroacetaldehyde derivatization. PMEA levels in urine were quantified 48 hours after treatment.
Plasma drug levels: PMEA was determined in plasma by a modification of the procedure described in the literature (Shaw J P, Louie M S, Krishnamurthy V V, Arimilli M N, Jones R J, Bidgood A M, Lee W A, & Cundy K C, Drug Metabolism and Disposition, 25:362–366 (1997)). Plasma (100 μL) samples were extracted with 2 volumes of 0.1% TFA in acetonitrile. Following centrifugation to remove the precipitate, the supernatant was evaporated to dryness. The dried plasma was reconstituted with 200 μL of the derivatization cocktail consisting of 0.34% chloroacetaldehyde in 100 mM sodium acetate pH 4.5 and incubated at 95° C. for 40 min. The samples were evaporated to dryness and reconstituted with mobile phase for analysis by HPLC. The derivatized PMEA was analyzed by an HPLC system (Hewlett Packard 1090) consisting of a Beckman Ultrasphere ODS 4.6×150 mm (5 μm) column developed with a 20-min gradient of 0–30% acetonitrile in 20 mM potassium phosphate pH 6.2. Fluorescence was monitored at an excitation and emission wavelength of 240 and 420 nm, respectively. The column temperature was 40° C. and the flow rate was 1.5 mL/min. The derivatized PMEA was detected and quantified by comparison to an authentic standard prepared in plasma and eluted at approximately 6 minutes. The limit of quantitation of PMEA, was 0.25 μg/mL.
Urinary excretion studies: The percent excretion of PMEA in urine was assessed by a modification of a previously described procedure (Russell J W, Marrero D, Whiterock V J, & Klunk L J, J Chromatog, 572:321–326 (1991)). Aliquots (0.25–0.5 mL) of urine samples and spiked standards were incubated with an equal volume of 17% (v/v) of 50% chloroacetaldehyde in 100 mM sodium acetate pH 4.5 at 50° C. for 4 hrs. Following centrifugation, the supernatant was analyzed by the HPLC method described in the previous section.

[2] = test system: liver microsomes isolated from rats induced with dexamethasone; experiment: In vitro activation of PMEA prodrug analogues to PMEA by rat liver microsomes; conditions: 1 mg/mL microsomes, 2 mM NADPH, 5 minutes, 37° C., PMEA formation
Experimental: PMEA prodrug analogues were tested for activation to PMEA in reactions catalyzed by the microsomal fraction of rat liver.
Prodrugs (25 and 250 μM) were tested for activation by liver microsomes isolated from rats induced with dexamethasone to enhance CYP3A4 activity (Human Biologics Inc., Phoenix Ariz.). Reactions were conducted in 0.1 M KH2PO4, pH 7.4, in the presence of 2 mM NADPH and liver microsomes (1 mg/mL). Reaction mixtures were incubated for 5 minutes in an Eppendorf Thermomixer 5436 (37° C., speed 6). Reactions were terminated by the addition of 1.5 volumes of methanol. The resulting extracts were clarified by centrifugation at 14,000 rpm in an Eppendorf microfuge (20 minutes). The supernatants (200 μL) were evaporated under vacuum and heat to dryness before resuspending in 80 μL of buffer A (see below) for PMEA analysis. Spiked standards of 9-[2-(phosophonomethoxy)ethyl]adenine, (PMEA, lot 980397, Metabasis Therapeutics) were prepared in the same reaction mixture and processed in an identical fashion. After resuspension, samples were analyzed by reverse phase HPLC (Altima C-18 column) with use of an ion-pairing buffer (Buffer A) consisting of 10 mM ammonium phosphate, 2.5 mM octyltriethylammonium phosphate, pH 5.5. Samples were loaded in Buffer A and eluted with a methanol gradient from 40% to 80% over 20 minutes. Detection was at 265 nm.

[3] = PMEApp accumulation in liver organ following oral administration to normal fasted rats; assay type: in vivo, rat; conditions: 30 mg/kg PMEA equivalents p.o.
Experimental: PMEA prodrugs were tested in vivo to identify prodrugs with suitable oral bioavailability and favorable intrahepatic activation rates.
Following oral administration of 30-mg/kg prodrug (PMEA equivalents) to normal, fasted rats, liver organ samples were freeze-clamped at 8 hr. […] The retention time of PMEApp was 18.6 minutes.

[4] = test system: freshly isolated rat hepatocytes; experiment: Hepatotoxicity parameters in isolated normal and dexamethasone-induced rat hepatocytes
Experimental: Normal fed Sprague-Dawley rats weighing 280–310 g were administered dexamethasone intraperitoneally at 50 mg/kg once a day for four days. Dexamethasone was purchased from Sigma (lot#119H1328) and formulated as a suspension in corn oil (Sigma lot#107H1649) at 50 mg/mL. On the fifth day rats were used for hepatocyte isolations. […] Effects on glutathione levels were assessed by the DTNB (Ellman's reagent) method and viability was determined by the trypan blue exclusion assay and hepatic enzyme leakage assays (LDH, AST). […] Both assays were adapted from the protocol insert for a test tube assay to a microtiter plate assay.

[5] = Pharmacokinetics and oral bioavailability in beagle dog; assay type: in vivo
Experimental: Following an i.v. bolus and oral administration of 8 and 40 mg/kg (prodrug equivalent dose), respectively, of Compound 4 in PEG-400 to male beagle dogs (n=4), blood samples were collected at the following times: 5, 15, 30, 45 min and 1, 2, 4, 6, 8, 12, and 24 hrs post each dosing occasion. In addition, urine was collected over the following intervals: 0–12, 12–24, 24–48, and 48–72 hrs. Intact Compound 4 and PMEA were measured in the plasma and urine samples using an LC-MS/MS method. PK parameters were determined by non-compartmental analysis.

[6] = Experimental: Intact prodrug and the metabolite 9-[2-(phosophonomethoxy)ethyl]adenine (PMEA) and the respective mono-acids were measured in the plasma at 0 (predose), 0.33, 1, 3, 5, 8, and 12 hrs post dose by HPLC using fluorescence detection. The pharmacokinetic parameters were calculated based on noncompartmental analysis of the concentration-time profile.
[7] = Tissue distribution of PMEA equivalents after oral tritiated Compound 4 and bis POM PMEA in rats
[8] = 1 mM Compound 4, normal rat hepatocytes
[9] = 40 mg/kg p.o. vs 8 mg/kg i.v., dog

With `Nc1ncnc2c1ncn2CCOCP1(=O)OCCC(c2cccc(Cl)c2)O1` (racemic) [Compound 4] the “AUC0-12h of PMEA in plasma” value ([1]; fasted rats) was 3.5 µM·h, the “Fold lower plasma PMEA AUC0-12h than following bis POM PMEA” value ([1]; rats) was 6 fold and the “Fold lower plasma PMEA Cmax than following bis POM PMEA” value ([1]; rats) was 13 fold. For the same compound, the “Fold lower urinary levels of PMEA than following bis POM PMEA” value ([1]; rats) was 5 fold, the “Urinary levels of PMEA” value ([1]; rats, urine 48 hours after treatment) was 4.1 % dose and the “Activation Rate, Dex. Rat Liver Microsomes, 25 μM” value ([2]; 25 μM prodrug) was 6.2 nmol/min/mg. The “Activation Rate, Dex. Rat Liver Microsomes, 250 μM” value ([2]; 250 μM prodrug) was 10.9 nmol/min/mg, the “Rats, PMEApp levels in liver organ @ 8 hr., 30 mg/kg, p.o.” value [3] was 6.6 nmol/g and the “Viability or hepatic enzyme leakage following glutathione depletion” value ([4]; 250 μM and 1 mM, hepatocytes from dexamethasone pre-treated rats) was “no significant changes”. The “Glutathione reduction, 250 μM” value ([4]; 250 μM, hepatocytes from dexamethasone pre-treated rats, 2-hour incubation) was 50%, the “Glutathione levels, normal hepatocytes” value [4, 8] was “no significant decrease” and the “Viability or hepatic enzyme leakage, normal hepatocytes” value [4, 8] was “no significant changes”. For the same compound, the “Glutathione reduction, 1 mM” value ([4]; 1 mM, hepatocytes from dexamethasone pre-treated rats, 2-hour incubation) was over 95%, the “Tolerability (signs of ill health or mortality)” value ([5]; 8 mg/kg i.v. bolus and 40 mg/kg oral in PEG-400, male beagle dogs) was “well tolerated” and the “Mean residence time (MRTiv)” value ([5]; 8 mg/kg i.v. bolus, dog) was 1.0 h. The Plasma clearance ([5]; 8 mg/kg i.v. bolus, dog) was 1.77 L/h/kg, the “Volume of distribution (Vss)” value ([5]; 8 mg/kg i.v. bolus, dog) was 1.70 L/kg and the “Mean terminal elimination half-life t1/2 of intact prodrug, i.v.” value ([5]; 8 mg/kg i.v. bolus, dog plasma) was 0.8 h. The “i.v. dose excreted in the urine as PMEA” value ([5]; 8 mg/kg i.v., dog) was 2%, the “i.v. dose excreted in the urine as intact Compound 4” value ([5]; 8 mg/kg i.v., dog) was “approximately 30%” and the “OBAV based on dose normalized oral-to-i.v. AUC ratios” value [5, 9] was 112%. The “OBAV based on urinary excretion of Compound 4” value [5, 9] was 82%, the “Half-life of PMEA after oral dosing of the prodrug” value ([5]; 40 mg/kg p.o., dog) was 5.4 h and the “Mean peak plasma concentration (Cmax) of intact prodrug, oral” value ([5]; 40 mg/kg p.o., dog) was 10.2 µg/mL. The “Mean plasma Cmax of PMEA following oral administration” value ([5]; 40 mg/kg p.o., dog) was 0.24 µg/mL, the “Terminal t1/2 after p.o. dosing” value ([5]; 40 mg/kg p.o., dog) was 1.0 h and the “Tmax of PMEA following oral administration” value ([5]; 40 mg/kg p.o., dog) was 1.4 h. For the same compound, the “Tmax of intact prodrug, oral” value ([5]; 40 mg/kg p.o., dog) was 0.8 h and 0.81 h, the “p.o. dose excreted in the urine as PMEA” value ([5]; 40 mg/kg p.o., dog) was 1.7% and the “p.o. dose excreted in the urine as intact prodrug” value ([5]; 40 mg/kg p.o., dog) was 40%. For the same compound, the Cmax ([5]; 40 mg/kg p.o., dog, read-out: Mean peak plasma concentration (Cmax) of intact prodrug, oral) was about 24 µM, the Cmax ([5]; 40 mg/kg p.o., dog, read-out: Mean plasma Cmax of PMEA following oral administration) was about 0.88 µM and the “% F (orally bioavailable)” value ([5]; beagle dog, conclusion) was about 100%. The “Fold reduction of systemic PMEA exposure (dose-normalized plasma AUC) versus bis POM PMEA literature” value ([5]; dog) was 18.8 fold, the “PMEA AUC (dose-normalized plasma)” value ([5]; dog, after Compound 4) was 0.58 and the “Plasma half-life of breakdown product 9-{2-[1-{(3-chlorophenyl)-1-propyl-3-hydroxy}phosphonomethoxy]ethyl}adenine” value ([6]; after 30 mg/kg PMEA equivalents p.o. of prodrug, rats) was about 2.1 h. The “Intact prodrug in plasma” value ([6]; rat, in vivo) was “observed in plasma”, the “Compound 4/bisPOM PMEA (fold difference), Kidney” value ([7]; 30 mg/kg PMEA equivalents p.o.) was 0.26 fold and the “Compound 4/bisPOM PMEA (fold difference), Liver organ” value ([7]; 30 mg/kg PMEA equivalents p.o.) was 3.1 fold and 3.11 fold. The “Compound 4/bisPOM PMEA (fold difference), Small Intestine” value ([7]; 30 mg/kg PMEA equivalents p.o.) was 0.04 fold, the “Fold decrease of exposure of PMEA equivalents in kidney relative to bis POM PMEA” value ([7]; 30 mg/kg PMEA equivalents p.o.) was 3.8 fold and the “Fold decrease of exposure of PMEA equivalents in small intestine relative to bis POM PMEA” value ([7]; 30 mg/kg PMEA equivalents p.o.) was 25 fold. For the same compound, the “Dose found as intact prodrug in feces” value ([7]; after 24 hours, p.o.) was about 60%.
